# Measured values published in ChEMBL document CHEMBL1201862, “PubChem BioAssay data set” (2004).
# The source made the active and inactive calls.
# Tests used:
# [1] = target: Induced myeloid leukemia cell differentiation protein Mcl-1 (Homo sapiens, UniProt Q07820); assay: MCL1-BIM BH3 interaction inhibitors, dose response, biochemical, fluorescence polarization, BIM-BH3 peptide, 1536-well (AID 2217)
# Bcl-2-like protein 1 = Bcl-2-like protein 1 (Homo sapiens, UniProt Q07817); assay: BCL-XL inhibitors, dose response, selectivity assay for MCL1 inhibitor project, biochemical, fluorescence polarization, 1536-well (AID 2218)
# Sequence of Bcl-2-like protein 1 (Q07817 whole entry): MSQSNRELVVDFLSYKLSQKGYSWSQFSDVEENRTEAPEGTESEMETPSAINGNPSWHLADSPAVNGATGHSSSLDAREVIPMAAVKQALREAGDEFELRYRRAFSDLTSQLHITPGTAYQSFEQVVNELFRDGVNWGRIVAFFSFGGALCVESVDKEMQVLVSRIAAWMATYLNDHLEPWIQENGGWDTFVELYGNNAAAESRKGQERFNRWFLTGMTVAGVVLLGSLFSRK
# [2] = target: T1, Intestinal-type alkaline phosphatase (Homo sapiens, UniProt P09923); assay: activation of human intestinal alkaline phosphatase – biochemical, dose response (AID 488873); assay type: functional
# T1 sequence (P09923 whole entry): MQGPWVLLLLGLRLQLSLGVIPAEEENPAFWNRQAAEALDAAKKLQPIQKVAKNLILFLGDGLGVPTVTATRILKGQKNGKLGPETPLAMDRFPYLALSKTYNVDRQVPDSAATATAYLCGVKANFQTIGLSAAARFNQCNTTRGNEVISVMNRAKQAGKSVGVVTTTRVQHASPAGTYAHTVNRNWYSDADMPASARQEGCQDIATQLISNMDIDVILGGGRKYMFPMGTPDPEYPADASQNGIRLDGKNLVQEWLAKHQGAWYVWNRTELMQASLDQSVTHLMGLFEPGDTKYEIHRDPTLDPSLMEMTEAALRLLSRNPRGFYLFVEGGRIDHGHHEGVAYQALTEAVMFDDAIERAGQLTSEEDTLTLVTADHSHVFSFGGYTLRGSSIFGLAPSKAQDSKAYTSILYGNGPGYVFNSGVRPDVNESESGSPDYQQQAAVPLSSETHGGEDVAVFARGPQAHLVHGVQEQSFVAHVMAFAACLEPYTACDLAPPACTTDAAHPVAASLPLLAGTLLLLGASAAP
# [3] = target: Intestinal-type alkaline phosphatase (Mus musculus, UniProt P24822); assay: PubChem AID 488785; assay type: functional
# Sequence of Intestinal-type alkaline phosphatase (Mus musculus, UniProt P24822) (P24822 whole entry): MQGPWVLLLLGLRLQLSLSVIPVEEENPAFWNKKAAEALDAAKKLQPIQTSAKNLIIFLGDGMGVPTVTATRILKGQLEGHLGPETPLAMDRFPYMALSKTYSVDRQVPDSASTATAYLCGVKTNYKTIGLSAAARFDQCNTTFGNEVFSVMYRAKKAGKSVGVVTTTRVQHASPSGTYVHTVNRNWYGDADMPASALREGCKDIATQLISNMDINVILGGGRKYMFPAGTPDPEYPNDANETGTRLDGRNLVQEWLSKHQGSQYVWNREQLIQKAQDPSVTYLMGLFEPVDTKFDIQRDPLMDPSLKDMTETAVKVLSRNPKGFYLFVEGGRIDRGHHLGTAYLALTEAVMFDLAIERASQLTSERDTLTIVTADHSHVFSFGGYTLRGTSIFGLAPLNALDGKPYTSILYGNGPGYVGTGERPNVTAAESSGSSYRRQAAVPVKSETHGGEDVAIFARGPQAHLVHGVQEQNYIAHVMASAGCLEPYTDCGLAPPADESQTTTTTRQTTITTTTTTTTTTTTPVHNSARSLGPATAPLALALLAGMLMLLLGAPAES
# [4] = target: T2, Alkaline phosphatase, tissue-nonspecific isozyme (Homo sapiens, UniProt P05186); assay: TNAP enzyme inhibition by screening hits, dose response, selectivity assay for mouse IAP inhibitor project, biochemical, human TNAP, uHTS hits (AID 488906); assay type: functional
# T2 sequence (P05186 whole entry): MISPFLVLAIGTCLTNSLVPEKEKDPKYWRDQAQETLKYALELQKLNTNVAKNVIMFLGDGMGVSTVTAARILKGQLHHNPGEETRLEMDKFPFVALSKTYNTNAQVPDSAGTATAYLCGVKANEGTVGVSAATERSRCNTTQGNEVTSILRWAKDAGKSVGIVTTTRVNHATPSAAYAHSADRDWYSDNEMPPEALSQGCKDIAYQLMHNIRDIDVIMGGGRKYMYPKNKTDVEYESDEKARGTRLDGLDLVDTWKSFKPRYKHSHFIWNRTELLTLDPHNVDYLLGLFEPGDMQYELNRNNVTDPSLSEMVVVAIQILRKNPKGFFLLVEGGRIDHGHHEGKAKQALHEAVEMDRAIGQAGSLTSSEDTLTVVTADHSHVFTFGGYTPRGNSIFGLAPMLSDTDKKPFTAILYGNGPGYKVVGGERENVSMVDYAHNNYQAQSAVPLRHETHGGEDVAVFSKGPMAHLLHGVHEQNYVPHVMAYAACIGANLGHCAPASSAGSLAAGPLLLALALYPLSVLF
# [5] = target: DNA (cytosine-5)-methyltransferase 1 (Homo sapiens, UniProt P26358); assay: DNMT1 methyltransferase inhibitors, confirmation, biochemical, fluorescent molecular beacon (AID 602386); assay type: functional
# [6] = target: T3, Small ubiquitin-related modifier 1 (Homo sapiens, UniProt P63165); assay: inhibitors of SUMO1 peptide binding, dose response, biochemical, fluorescence polarization, uHTS hits (AID 624382); assay type: functional; conditions: read-out: IC50_Mean
# T3 sequence (P63165 whole entry): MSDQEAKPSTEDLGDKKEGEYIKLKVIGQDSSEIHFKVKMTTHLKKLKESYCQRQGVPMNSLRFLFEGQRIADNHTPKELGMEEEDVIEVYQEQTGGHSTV
# [7] = target: T3, Small ubiquitin-related modifier 1; assay: inhibitors of SUMO1 partner interactions, dose response, biochemical, FRET (AID 624383); assay type: functional; conditions: read-out: IC50_Mean
# [8] = NIH-3T3 fibroblast cytotoxicity, dose response, cytotoxicity control, cell-based, fluorescence, Alamar Blue, secondary assay (AID 2327); assay type: functional;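 further: NIH-3T3 mouse fibroblasts cultured with fluconazole at 8 µg/mL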
# [9] = inhibitors of firefly luciferase expression or activity, dose response, H4 neuroglioma cells, luminescence (AID 1990); assay type: functional, cell-based
# [10] = Luminescence Cell-Based Dose Response HTS to Identify Inhibitors of 5'UTR Stem-Loop Driven Prion Protein mRNA Translation in H4 Neuroglioblastoma Cells. [Related pubchem assays: 1827 (Project Summary), 1813 (Primary HTS)]; assay type: functional
# [11] = target: T4, Heat shock factor protein 1 (Mus musculus, UniProt P38532); assay: inhibition of MG132-induced HSE-luciferase signal, confirmation, cell-based, NIH3T3, luminescence, dose retest (AID 2382); assay type: functional;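 further: NIH3T3 fibroblasts with HSF1-driven luciferase reporter stressed by proteasome inhibitor MG132; luminescence from HSF1-driven luciferase expression after 8 hours of MG132 stress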
# T4 sequence (P38532 whole entry): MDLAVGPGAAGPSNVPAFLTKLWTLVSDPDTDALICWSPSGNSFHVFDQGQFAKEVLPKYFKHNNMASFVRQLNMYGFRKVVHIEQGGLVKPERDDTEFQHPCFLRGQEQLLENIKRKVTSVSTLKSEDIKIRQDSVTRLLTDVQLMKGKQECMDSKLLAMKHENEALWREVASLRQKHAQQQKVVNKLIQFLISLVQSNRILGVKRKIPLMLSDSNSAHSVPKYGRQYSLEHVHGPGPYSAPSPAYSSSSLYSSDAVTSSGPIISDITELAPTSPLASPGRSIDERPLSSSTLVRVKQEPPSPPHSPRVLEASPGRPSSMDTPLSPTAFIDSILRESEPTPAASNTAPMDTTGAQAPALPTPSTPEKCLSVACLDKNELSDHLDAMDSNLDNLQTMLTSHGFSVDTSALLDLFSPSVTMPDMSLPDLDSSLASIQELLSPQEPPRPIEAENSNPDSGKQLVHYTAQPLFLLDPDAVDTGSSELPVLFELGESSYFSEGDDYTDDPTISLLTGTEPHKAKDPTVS
# [12] = inhibitors of SNCA 5'UTR-driven reporter translation, confirmation, H4 neuroglioma cells, luminescence (AID 1988); assay type: functional, cell-based
# [13] = C. albicans growth with fluconazole, confirmation, fluorescence, retest (AID 2467); assay type: functional, cell-based
# [14] = target: Serine/threonine-protein phosphatase (Candida dubliniensis (strain CD36 / CBS 7987 / NCPF 3949 / NRRLY-17841) (Yeast), UniProt B9W6M3); assay: calcineurin pathway inhibitors in yeast reporter, dose response, S. cerevisiae, CDRE-lacZ, luminescence, secondary (AID 2388); assay type: functional, cell-based;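 further: yeast reporter cells carrying a calcineurin-responsive lacZ construct stimulated with calcium chloride; luminescent beta-galactosidase reporter signal in whole cells rather than isolated phosphatase activity; potency for inhibition where a drop in reporter signal means calcineurin blockade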
# Sequence of Serine/threonine-protein phosphatase (B9W6M3 whole entry, the tested form may be a part): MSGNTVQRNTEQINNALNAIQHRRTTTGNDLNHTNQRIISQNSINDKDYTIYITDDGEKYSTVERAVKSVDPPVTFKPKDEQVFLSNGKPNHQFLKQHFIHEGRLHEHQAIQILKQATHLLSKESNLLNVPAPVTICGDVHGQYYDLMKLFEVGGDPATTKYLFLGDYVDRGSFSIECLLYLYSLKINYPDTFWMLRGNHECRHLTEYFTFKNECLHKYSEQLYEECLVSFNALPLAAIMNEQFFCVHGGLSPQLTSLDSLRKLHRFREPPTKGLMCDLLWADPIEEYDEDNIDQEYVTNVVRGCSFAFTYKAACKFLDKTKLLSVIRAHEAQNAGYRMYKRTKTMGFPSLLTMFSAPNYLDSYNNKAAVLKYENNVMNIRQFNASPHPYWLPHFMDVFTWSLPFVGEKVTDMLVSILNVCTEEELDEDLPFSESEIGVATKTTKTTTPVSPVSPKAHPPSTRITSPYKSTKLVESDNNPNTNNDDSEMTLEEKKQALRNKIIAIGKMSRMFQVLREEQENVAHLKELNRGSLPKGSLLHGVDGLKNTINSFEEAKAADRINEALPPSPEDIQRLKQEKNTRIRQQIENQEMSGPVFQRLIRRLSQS
# [15] = target: NACHT, LRR and PYD domains-containing protein 3 (Homo sapiens, UniProt Q96P20); assay: NALP3 inhibitors in yeast, dose response, luminescent (AID 488799); assay type: functional
# [16] = THP-1 cell cytotoxicity, dose response, cytotoxicity control for non-replicating M. tuberculosis project (AID 489025); assay type: functional
# [17] = HepG2 cell cytotoxicity, dose response, cytotoxicity control for non-replicating M. tuberculosis project (AID 489018); assay type: functional; conditions: Mycobacterium tuberculosis
# [18] = Vero E6 cell cytotoxicity, dose response, cytotoxicity control for non-replicating M. tuberculosis project, secondary assay (AID 492998); assay type: functional, VeroE6; conditions: Vero C1008
# cells = assay type: functional
# [19] = target: ATP-dependent molecular chaperone HSP82 (Candida albicans (strain WO-1) (Yeast), UniProt C4YTQ8); assay: loss of DOC-induced GRE-beta-galactosidase reporter signal, dose response, Hsp90 inhibitor project, S. cerevisiae, luminescence (AID 2400); assay type: functional, cell-based;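 further: beta-galactosidase luminescence from glucocorticoid response element reporter as proxy for Hsp90 function; inhibitor potency where signal loss means Hsp90 inhibition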
# Cytochrome P450 3A4 = Cytochrome P450 3A4 (Homo sapiens, UniProt P08684);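 further: CYP3A4 tested as one member of a cytochrome P450 panel screen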
# [20] = target: T5, Short transient receptor potential channel 4 (Mus musculus, UniProt Q9QUQ5); assay: TRPC4 positive allosteric modulators, dose response, cell-based, HEK293 TRPC4/mu-opioid, Fluo-4 calcium, EC20 DAMGO (AID 434941); assay type: functional
# T5 sequence (Q9QUQ5 whole entry): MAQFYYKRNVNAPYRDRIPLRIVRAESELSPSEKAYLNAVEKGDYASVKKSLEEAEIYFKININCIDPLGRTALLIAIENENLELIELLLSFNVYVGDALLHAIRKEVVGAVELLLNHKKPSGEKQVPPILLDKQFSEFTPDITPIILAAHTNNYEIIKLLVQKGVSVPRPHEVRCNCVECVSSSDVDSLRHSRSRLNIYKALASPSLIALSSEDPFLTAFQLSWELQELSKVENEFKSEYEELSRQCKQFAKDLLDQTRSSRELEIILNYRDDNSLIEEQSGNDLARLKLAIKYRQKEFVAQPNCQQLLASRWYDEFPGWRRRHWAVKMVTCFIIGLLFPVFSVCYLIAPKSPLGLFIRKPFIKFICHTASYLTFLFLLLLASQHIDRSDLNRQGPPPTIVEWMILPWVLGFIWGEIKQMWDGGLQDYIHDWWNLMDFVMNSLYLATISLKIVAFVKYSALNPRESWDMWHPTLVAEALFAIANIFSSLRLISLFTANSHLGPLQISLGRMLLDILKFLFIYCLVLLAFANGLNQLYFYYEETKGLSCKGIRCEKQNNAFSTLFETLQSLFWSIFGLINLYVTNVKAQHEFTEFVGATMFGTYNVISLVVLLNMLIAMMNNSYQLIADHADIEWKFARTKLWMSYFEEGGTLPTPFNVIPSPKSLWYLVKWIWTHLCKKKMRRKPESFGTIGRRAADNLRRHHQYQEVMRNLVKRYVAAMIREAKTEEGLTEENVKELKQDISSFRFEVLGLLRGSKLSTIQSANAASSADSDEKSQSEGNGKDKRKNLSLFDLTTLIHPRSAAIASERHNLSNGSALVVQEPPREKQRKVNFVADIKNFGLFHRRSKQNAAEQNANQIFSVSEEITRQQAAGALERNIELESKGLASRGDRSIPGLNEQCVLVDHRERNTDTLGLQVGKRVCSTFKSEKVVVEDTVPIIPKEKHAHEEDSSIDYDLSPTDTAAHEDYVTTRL
# Integrin alpha-L = Integrin alpha-L (Mus musculus, UniProt P24063); assay: modulators of CD8 T cell-vesicle binding, dose response, powder samples, mouse 2C CD8+ cells (AID 504565); assay type: functional
# T-cell = assay: inhibitors of CD8+ T cell–vesicle binding, dose response, mouse 2C CD8+ T cells, flow cytometry (AID 485284); assay type: functional
# [21] = target: T1, Intestinal-type alkaline phosphatase; assay: Dose Response confirmation of uHTS hits from a small molecule inhibitors of human intestinal alkaline phosphatase via a luminescent assay. [Related pubchem assays (depositor defined):AID2544, AID2574]; assay type: functional
# Cytochrome P450 2C9 = Cytochrome P450 2C9 (Homo sapiens, UniProt P11712)
# Sequence of Cytochrome P450 2C9 (P11712 whole entry): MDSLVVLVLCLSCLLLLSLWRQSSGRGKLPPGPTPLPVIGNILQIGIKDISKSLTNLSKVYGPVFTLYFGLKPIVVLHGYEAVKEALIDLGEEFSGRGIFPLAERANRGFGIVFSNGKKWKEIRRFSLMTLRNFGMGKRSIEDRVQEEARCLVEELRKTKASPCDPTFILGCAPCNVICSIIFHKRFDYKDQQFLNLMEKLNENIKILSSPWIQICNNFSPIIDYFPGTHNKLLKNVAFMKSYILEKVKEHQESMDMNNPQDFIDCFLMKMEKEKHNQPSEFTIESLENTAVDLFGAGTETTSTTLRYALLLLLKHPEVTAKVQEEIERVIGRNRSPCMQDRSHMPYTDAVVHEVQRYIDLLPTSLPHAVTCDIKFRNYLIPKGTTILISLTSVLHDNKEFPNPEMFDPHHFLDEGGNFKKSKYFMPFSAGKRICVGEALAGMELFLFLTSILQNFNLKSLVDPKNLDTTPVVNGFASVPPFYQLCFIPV
# [22] = target: DNA dC->dU-editing enzyme APOBEC-3A (Homo sapiens, UniProt P31941); assay: APOBEC3A DNA deaminase inhibitors, dose response, biochemical (AID 504722); assay type: functional
# [23] = target: DNA dC->dU-editing enzyme APOBEC-3G (Homo sapiens, UniProt Q9HC16); assay: Dose Response confirmation of small molecule APOBEC3G DNA Deaminase Inhibitors via a fluorescence-based single-stranded DNA deaminase assay. [Related pubchem assays (depositor defined):AID493012, AID493028]; assay type: functional
# [24] = target: T6, Kappa-type opioid receptor (Homo sapiens, UniProt P41145); assay type: functional
# T6 sequence (P41145 whole entry): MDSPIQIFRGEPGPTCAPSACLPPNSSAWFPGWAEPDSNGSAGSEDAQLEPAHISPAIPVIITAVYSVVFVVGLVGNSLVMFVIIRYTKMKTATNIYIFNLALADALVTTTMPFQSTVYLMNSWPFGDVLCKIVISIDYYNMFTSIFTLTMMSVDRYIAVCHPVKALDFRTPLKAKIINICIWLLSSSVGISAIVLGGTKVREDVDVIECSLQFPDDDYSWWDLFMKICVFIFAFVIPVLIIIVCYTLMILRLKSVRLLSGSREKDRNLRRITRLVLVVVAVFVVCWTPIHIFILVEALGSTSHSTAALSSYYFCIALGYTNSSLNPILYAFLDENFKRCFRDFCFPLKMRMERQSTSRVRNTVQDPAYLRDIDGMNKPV
# Beta-galactosidase = Beta-galactosidase (Escherichia coli, UniProt Q8VNN2); assay type: functional
# Sequence of Beta-galactosidase (Q8VNN2 whole entry): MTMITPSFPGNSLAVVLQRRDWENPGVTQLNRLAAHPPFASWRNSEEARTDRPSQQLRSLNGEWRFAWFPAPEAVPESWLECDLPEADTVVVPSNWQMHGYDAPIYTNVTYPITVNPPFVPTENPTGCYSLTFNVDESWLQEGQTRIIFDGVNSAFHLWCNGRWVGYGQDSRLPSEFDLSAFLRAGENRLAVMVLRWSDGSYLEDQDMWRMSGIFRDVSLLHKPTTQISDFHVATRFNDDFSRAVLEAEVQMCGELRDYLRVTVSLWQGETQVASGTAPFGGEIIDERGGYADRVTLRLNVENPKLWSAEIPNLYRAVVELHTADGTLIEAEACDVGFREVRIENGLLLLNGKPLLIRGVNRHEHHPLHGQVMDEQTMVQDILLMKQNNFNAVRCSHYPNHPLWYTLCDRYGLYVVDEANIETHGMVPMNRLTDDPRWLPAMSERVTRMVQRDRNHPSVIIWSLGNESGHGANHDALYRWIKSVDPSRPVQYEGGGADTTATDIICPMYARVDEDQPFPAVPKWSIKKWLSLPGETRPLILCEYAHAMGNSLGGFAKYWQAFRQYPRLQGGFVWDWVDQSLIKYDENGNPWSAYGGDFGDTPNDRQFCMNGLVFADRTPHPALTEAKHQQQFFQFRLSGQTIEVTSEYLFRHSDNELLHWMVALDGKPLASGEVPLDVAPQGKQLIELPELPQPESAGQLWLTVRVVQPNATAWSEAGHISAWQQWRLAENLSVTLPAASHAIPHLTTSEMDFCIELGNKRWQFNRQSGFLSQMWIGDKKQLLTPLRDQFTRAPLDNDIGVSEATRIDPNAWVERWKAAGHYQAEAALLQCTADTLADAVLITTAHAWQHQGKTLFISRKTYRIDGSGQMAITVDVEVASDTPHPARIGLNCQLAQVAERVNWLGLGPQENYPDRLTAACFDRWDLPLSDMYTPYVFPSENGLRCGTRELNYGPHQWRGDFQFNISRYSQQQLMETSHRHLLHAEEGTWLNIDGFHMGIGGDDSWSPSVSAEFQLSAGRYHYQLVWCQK
# [25] = target: T6, Kappa-type opioid receptor; assay type: functional; remark: listed apart in the source
# [26] = target: T7, Tyrosine-protein phosphatase non-receptor type 7 (Homo sapiens, UniProt P35236); assay: redox-dependent HePTP inhibition, mechanism study, biochemical, fluorescence (AID 2068); assay type: functional
# T7 sequence (P35236 whole entry): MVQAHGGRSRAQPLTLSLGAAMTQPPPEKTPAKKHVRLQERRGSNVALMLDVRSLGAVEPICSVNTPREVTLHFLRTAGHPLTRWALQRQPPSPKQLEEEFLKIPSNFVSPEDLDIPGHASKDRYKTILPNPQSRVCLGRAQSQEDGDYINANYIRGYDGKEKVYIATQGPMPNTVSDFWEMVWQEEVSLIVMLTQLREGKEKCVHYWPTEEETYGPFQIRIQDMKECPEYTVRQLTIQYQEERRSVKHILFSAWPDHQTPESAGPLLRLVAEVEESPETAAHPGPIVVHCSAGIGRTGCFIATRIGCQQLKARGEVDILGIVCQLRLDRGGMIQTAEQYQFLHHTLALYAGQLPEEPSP
# [27] = target: Eukaryotic translation initiation factor 4H (Homo sapiens, UniProt Q15056); assay: eIF4H inhibition in translation initiation, SAR follow-up (AID 435011); assay type: functional
# [28] = target: Polyadenylate-binding protein 1 (Homo sapiens, UniProt P11940); assay: PABP inhibition in translation initiation, SAR follow-up (AID 435018); assay type: functional
# Sequence of Polyadenylate-binding protein 1 (P11940 whole entry): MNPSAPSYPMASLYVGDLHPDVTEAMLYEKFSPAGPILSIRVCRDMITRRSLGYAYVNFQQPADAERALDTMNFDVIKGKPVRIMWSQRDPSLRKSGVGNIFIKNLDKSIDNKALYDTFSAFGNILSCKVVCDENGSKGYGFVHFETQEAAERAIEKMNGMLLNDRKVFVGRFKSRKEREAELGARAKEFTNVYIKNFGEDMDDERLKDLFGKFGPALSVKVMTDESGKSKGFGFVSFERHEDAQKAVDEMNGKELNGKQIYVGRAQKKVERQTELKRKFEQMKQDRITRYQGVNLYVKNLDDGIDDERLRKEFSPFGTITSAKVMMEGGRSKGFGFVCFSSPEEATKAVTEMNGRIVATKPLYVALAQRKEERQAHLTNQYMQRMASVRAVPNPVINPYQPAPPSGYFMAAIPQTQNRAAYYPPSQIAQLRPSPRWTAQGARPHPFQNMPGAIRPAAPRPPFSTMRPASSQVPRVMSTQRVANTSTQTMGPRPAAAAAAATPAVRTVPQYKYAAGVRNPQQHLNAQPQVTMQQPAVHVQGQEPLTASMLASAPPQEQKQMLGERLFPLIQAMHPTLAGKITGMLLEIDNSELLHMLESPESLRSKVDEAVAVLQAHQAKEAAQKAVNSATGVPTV
# [29] = target: T6, Kappa-type opioid receptor; assay: SAR analysis of small molecule agonists of the kappa opioid receptor via a luminescent beta-arrestin assay - Set 2. [Related pubchem assays (depositor defined):AID1777, AID1785, AID1786, AID1966, AID2133, AID2136, AID2284, AID449737]; assay type: functional
smiles,measurement,setting,value
O=S(=O)(c1cc(O)ccc1O)c1cccc2c(S(=O)(=O)c3cc(O)ccc3O)cccc12,IC50,[1],8.31 µM (active)
same,IC50,Bcl-2-like protein 1,> 109 µM (not active)
same,EC50,[2],15 µM (active)
same,IC50,[3],12.8 µM (active)
same,IC50,[4],38.9 µM (active)
same,IC50,[5],3.81 µM (active)
same,IC50,[6],> 66.6 µM (inactive)
same,IC50,[7],5.39 µM (active)
O=c1c2ccc(Cl)cc2nc(-c2cccc(C(F)(F)F)c2)n1O,EC50,[8],> 150 µM (inactive)
same,EC50,[9],10.4 µM (active)
same,EC50,[10],9.65 µM (active)
same,EC50,[11],> 195 µM (not active)
same,EC50,[12],6.6 µM (active)
same,EC50,[13],0.605 µM (active)
same,EC50,[14],> 180 µM (inactive)
same,IC50,[15],11 µM (active)
same,CC50,[16],2.96 µM (active)
same,CC50,[17],11.9 µM (active)
same,CC50,[18],5.29 µM (active)
same,IC50,cells,6.27 µM (active)
same,EC50,[19],15.6 µM (active)
same,AC50,Cytochrome P450 3A4,28.2 µM (inconclusive)
CCn1c(O)c(N=NC(=O)c2cccc(S(=O)(=O)N3CCCCC3)c2)c2ccccc21,EC50,[20],2.37 µM (active)
CCN(CC)S(=O)(=O)c1ccc(Cl)c(NC(=O)COC(=O)C2CCCCC2)c1,EC50,Integrin alpha-L,0.026 µM (active)
same,EC50,T-cell,0.246 µM (active)
CCCn1c(/C=C/c2ccccc2)nc2ccccc21,IC50,[21],> 100 µM (inactive)
same,AC50,Cytochrome P450 2C9,inconclusive
COc1ccccc1-n1c(S)nnc1-c1ccccc1,IC50,[22],> 100 µM (inactive)
same,IC50,[23],4.11 µM (active)
COc1cc2c(cc1OC)C1(CCCC1)CNC2c1cccc([N+](=O)[O-])c1 (stereo unspecified),IC50,[24],5.26 µM (active)
same,EC50,Beta-galactosidase,8.91 µM (active)
same,IC50,[25],> 32 µM
O=C(Nc1ccc2nc(-c3ccco3)c(-c3ccco3)nc2c1)NC1CCCCC1,IC50,[26],> 50 µM (inactive)
COc1ccc([N+](=O)[O-])cc1NC(=O)C(C)OC(=O)c1ccc(NC(N)=O)cc1 (stereo unspecified),IC50,[27],> 100 µM (inactive)
same,IC50,[28],> 100 µM (inactive)
O=C(CN(Cc1cccs1)C(=O)c1cccnc1)NC1CCCCCC1,EC50,[29],> 20 µM (inactive)
